Legend:
[1] = system: cloned mammalian (mSlo or hSlo) BK channel expressed in Xenopus oocytes; test: Assay for BK channel openers: two-electrode voltage clamp, BK-mediated outward current in Xenopus oocytes; format: cell-based; conditions: percent increase over BK current in controls, voltage step to +140 mV, IBTX-sensitive current
Experimental: The ability of the compounds of the invention to open BK channels and increase whole-cell outward (K^+) BK-mediated currents was assessed under voltage-clamp conditions by determining their ability to increase cloned mammalian (mSlo or hSlo) BK-mediated outward current heterologously expressed in Xenopus oocytes [Butler, A., et al., Science 1993, 261, 221–224; Dworetzky, S. I., et al., Mol. Brain Res. 1994, 27, 189–193; Gribkoff, V. K., et al., Mol. Pharmacol. 1996, 50, 206–217]. The two BK constructs employed represent nearly structurally identical homologous proteins, and have proven to be pharmacologically indistinguishable in our tests. To isolate BK current from native (background, non-BK) current, the specific and potent BK channel-blocking toxin iberiotoxin (IBTX) [Galvez, A., et al., J. Biol. Chem. 1990, 265, 11083–11090] was employed at a supramaximal concentration, e.g., 50–100 nanomolar (“nM”). The relative contribution of BK channel-mediated current to total outward current was determined by subtraction of the current remaining in the presence of IBTX (non-BK current) from the current profiles obtained in all other experimental conditions (control, drug, and wash) [Gribkoff, V. K. et al., Mol. Pharmacol. 1996, 50, 206–217]. […] All compounds were tested in 5–10 oocytes and are reported at the indicated concentration of 20 micromolar (“μM”) (or as otherwise indicated); the effect of the selected compounds of the invention on BK current was expressed as the percent of control IBTX-sensitive current at a single transmembrane voltage (+140 mV) and is listed in Table 1. Recordings were accomplished using standard two-electrode voltage clamp techniques [Stuhmer, W., et al., Methods in Enzymology, 1992, 207, 319–339]; voltage-clamp protocols consisted of 500–750 milliseconds (“ms”) duration step depolarizations, from a holding potential of −60 mV, to a final voltage up to +140 mV in 20 mV steps. The experimental media (modified Barth's solution) consisted of millimolar (“mM”): NaCl (88), NaHCO3 (2.4), KCl (1.0), HEPES (10), MgSO4 (0.82), Ca(NO3)2 (0.33), CaCl2 (0.41); pH 7.5.

[2] = system: rat small intestine (ileum) segments; test: Rat small intestine (ileum) strip relaxation; conditions: integral of nifedipine-sensitive force, pre- vs 30 min post-compound
From the text: The ability of the compounds of the invention to relax rat small intestine tissue as a model for the treatment of irritable bowel syndrome is described as follows. Male rats (Harlan, Sprague Dawley, 250–350 g) were sacrificed by decapitation. A portion of small intestine (ileum) was removed and the attached connective tissues and intestinal contents removed. The ileum was cut into segments of ≦1 cm in length. The segments were mounted longitudinally between fixed hooks in organ baths containing warm (37° C.) physiological salt solution (composition in mM: NaCl 118.4, KCl 4.7, KH2PO4 1.2, MgSO4 1.2, CaCl2 1.8, Glucose 10.1, NaHCO3 25; gassed with 95% O2/5% CO2, pH 7.4). A stable tension of ˜1.5 g was maintained in the tissue segments during the equilibration period of 45 minutes. Changes in muscle tension were measured with isometric force transducers (Grass, FT-03C) and recorded using AcqKnowledge data acquisition system (AcqKnowledge for MP100WS, Biopac Systems Inc., Goleta, Calif.). Compound or vehicle was added in the baths for 30 minutes. […] The effects of compounds or vehicle on force was determined by measuring the integral of nifedipine-sensitive force (including resting tone and spontaneous contractions) pre- and 30 min post-compound (or vehicle) addition. Results are expressed as the percentage inhibition of force. […]

Structure (SMILES) | % MaxiK opening ([1]; at 20 μM) [%] | % Inhibition of force (RSI strips) [2] [%] | % MaxiK opening ([1]; at 1 μM)
Nc1ccc(Sc2c(-c3cc(Cl)ccc3O)c3cc(C(F)(F)F)ccc3[nH]c2=O)cc1 [Example 1, 3-[(4-Aminophenyl)thio]-4-(5-chloro-2-hydroxyphenyl)-6-(trifluoromethyl)-2(1H)-quinolinone] | 392 | 10 | 
Cn1c(=O)c(Sc2ccc(N)cc2)c(-c2cc(Cl)ccc2O)c2cc(C(F)(F)F)ccc21 [Example 2, 3-[(4-Aminophenyl)thio]-4-(5-chloro-2-hydroxyphenyl)-1-methyl-6-(trifluoromethyl)-2(1H)-quinolinone] | 144 |  | 
CCS(=O)(=O)Nc1ccc(Sc2c(-c3cc(Cl)ccc3O)c3cc(C(F)(F)F)ccc3[nH]c2=O)cc1 [Example 3, N-[4-[[4-(5-Chloro-2-hydroxyphenyl)-1,2-dihydro-2-oxo-6-(trifluoromethyl)-3-quinolinyl]thio]phenyl]ethanesulfonamide] | 296 |  | 
COc1ccc(Cl)cc1-c1c(Sc2ccc(NS(=O)(=O)C(F)(F)F)cc2)c(=O)[nH]c2ccc(C(F)(F)F)cc12 [Example 4, N-[4-[[4-(5-chloro-2-methoxyphenyl)-1,2-dihydro-2-oxo-6-(trifluoromethyl)-3-quinolinyl]thio]phenyl]-1,1,1-trifluoromethanesulfonamide] | 235 |  | 
CCCS(=O)(=O)Nc1ccc(Sc2c(-c3cc(Cl)ccc3O)c3cc(C(F)(F)F)ccc3[nH]c2=O)cc1 [Example 5, N-[4-[[4-(5-chloro-2-hydroxyphenyl)-1,2-dihydro-2-oxo-6-(trifluoromethyl)-3-quinolinyl]thio]phenyl]-1-propanesulfonamide] | 255 |  | 
CN(C)S(=O)(=O)Nc1ccc(Sc2c(-c3cc(Cl)ccc3O)c3cc(C(F)(F)F)ccc3[nH]c2=O)cc1 [Example 6, N′-[4-[[4-(5-chloro-2-hydroxyphenyl)-1,2-dihydro-2-oxo-6-(trifluoromethyl)-3-quinolinyl]thio]phenyl]-N,N-dimethylsulfamide] |  |  | 222^⋄ %
O=c1[nH]c2ccc(C(F)(F)F)cc2c(-c2cc(Cl)ccc2O)c1Sc1ccc(NS(=O)(=O)C(F)(F)F)cc1 [Example 7, N-[4-[[4-(5-chloro-2-hydroxyphenyl)-1,2-dihydro-2-oxo-6-(trifluoromethyl)-3-quinolinyl]thio]phenyl]-1,1,1-trifluoromethanesulfonamide] | 277 | 51 | 
O=c1[nH]c2ccc(C(F)(F)F)cc2c(-c2cc(Cl)ccc2O)c1Sc1ccc(NS(=O)(=O)CC(F)(F)F)cc1 [Example 8, N-[4-[[4-(5-chloro-2-hydroxyphenyl)-1,2-dihydro-2-oxo-6-(trifluoromethyl)-3-quinolinyl]thio]phenyl]-2,2,2-trifluoroethanesulfonamide] | 170 |  | 
CN(C)S(=O)(=O)Nc1ccc(Sc2c(-c3cc(Cl)ccc3O)c3cc(C(F)(F)F)ccc3n(C)c2=O)cc1 [Example 9, N′-[4-[[4-(5-chloro-2-hydroxyphenyl)-1,2-dihydro-1-methyl-2-oxo-6-(trifluoromethyl)-3-quinolinyl]thio]phenyl]-N,N-dimethylsulfamide] |  |  | 114^⋄ %

From patent US7145013B2, “3-thia-4-arylquinolin-2-one derivatives” (Bristol-Myers Squibb Company, priority 2003, dated 2006)
